Source: patent US6815577B1, “Method of hybrid seed production using conditional female sterility” (Syngenta Participations AG, priority 1997, dated 2004)

Tests used:
[1] = test system: transgenic plants expressing N-acetyl-L-ornithine deacetylase gene in tapetal cells; settings: Kriete et al. 1996; EP 531,716; cited from earlier work
[2] = test system: transgenic plants expressing bacterial cytochrome P450 gene in tapetal cells; settings: WO 91/03561; O'Keefe et al. 1994; cited from earlier work
[3] = test system: conditional male sterile plants (transformed with pGK73); experiment: Acetyl-PPT treatment of conditional male sterile tobacco plants; type: in vivo; settings: T1 tobacco, pGK73 (TA29-argE), treated during the growing stages; untreated plants remain fully fertile
Description: Tobacco leaf discs are also transformed with pGK73, containing an expression cassette of the argE gene under the control of the TA29 promoter (Kriete et al., Plant J. 9:809-818 (1996)) as described in Horsch et al., Science 227:1229-1231 (1985). The presence of the integrated transgenes are confirmed by PCR. Northern analysis of RNA made from anthers is used to confirm tissue-specific expression of the argE gene in the transgenic plants. These plants are self-fertile and have the phenotype of conditional male sterility. Seed of the T1 generation is collected after self-pollination.
Seed of the T1 generation from both conditional female sterile plants (transformed with pFA100) and conditional male sterile plants (transformed with pGK73) are planted in soil. Once plantlets have grown to a sufficient size, leaf tissue is analyzed by PCR for the presence of the argE transgene. PCR positive plants are transferred to the greenhouse. These plants are fully fertile in the absence of exogenously-applied protoxin. A subset of the conditional female sterile plants and a subset of the conditional male sterile plants are treated with the protoxin acetyl-PPT during the growing stages. […] The untreated plants remain fully fertile. Pollen from the treated female sterile plants is collected and used to pollinate the pistils of treated male sterile plants, which are the female parent plants. […]

[4] = test system: conditional female sterile plants (transformed with pFA100); experiment: Acetyl-PPT treatment of conditional female sterile tobacco plants; type: in vivo; settings: T1 tobacco, pFA100 (Stig1-argE), treated during the growing stages; untreated plants remain fully fertile
Description: Plasmid pFA100 is constructed in a manner similar to pSH58, above, except that the argE gene (SEQ ID NO:3) replaces the GUS gene in Stig1-GUS (Goldman et al., EMBO J. 13:2976-2984 (1994)) in the correct translational reading frame using appropriate restriction enzymes. The STIG1-argE fusion is then ligated into a vector such as pCIB200 containing T-DNA borders, 3′ termination sequences and a functional plant selectable marker such as kanamycin resistance. The Stig1 promoter is a female-preferential promoter.
Tobacco leaf discs are transformed as described in Horsch et al., Science 227:1229-1231 (1985) with pSH58. The presence of the integrated transgenes is confirmed by PCR. Northern analysis of RNA made from female tissue is used to confirm tissue-specific expression of the argE gene in the transgenic plants. These plants are self-fertile and have the phenotype of conditional female sterility. T1 seed is collected after self-pollination. The female conditional transgene in pFA100 is also introduced into tobacco using similar procedures.
Seed of the T1 generation from both conditional female sterile plants (transformed with pFA100) and conditional male sterile plants (transformed with pGK73) are planted in soil. Once plantlets have grown to a sufficient size, leaf tissue is analyzed by PCR for the presence of the argE transgene. PCR positive plants are transferred to the greenhouse. […]

[5] = test system: plants transformed with pMA200 or pSH68 or pZmgarg; experiment: Acetyl-PPT treatment of plants conferring conditional male sterility; type: in vivo; settings: T1 plants with pMA200 or pSH68 or pZmgarg, treated during the growing stages; untreated plants fully fertile
Protocol: (§1) Seed from the T1 generation from plants transformed with pFA200 or pSH74 or p19arg (conferring conditional female sterility) and plants transformed with pMA200 or pSH68 or pZmgarg (conferring conditional male sterility) are planted in soil. Once plantlets have grown to a sufficient size, leaf tissue is analyzed by PCR for the presence of the argE transgene. PCR positive plants are transferred to the greenhouse. These plants are fully fertile. A subset of the plants containing pFA200 or pSH74 or p19arg and a subset containing pMA200 or pSH68 or pZmarg are treated with the protoxin acetyl-PPT during the growing stages. […] The untreated plants transformed with pFA200 or pSH74 or p19arg and pMA200 or pSH68 or pZmgarg are fully fertile.

[6] = test system: plants transformed with pFA200 or pSH74 or p19arg; experiment: Acetyl-PPT treatment of plants conferring conditional female sterility; type: in vivo; settings: T1 plants with pFA200 or pSH74 or p19arg, treated during the growing stages; untreated plants fully fertile
Protocol: as §1

[7] = test system: transgenic plants expressing phosphonate monoester hydrolase gene in tapetal cells; settings: Dotson et al. 1996; cited from earlier work

For `CC(=O)N[C@@H](CCP(C)(=O)O)C(=O)O` [N-acetyl-L-phosphinothricin], the “male fertility after protoxin treatment” value [1] is given as “rendered male sterile”.
For `COc1cc(OC)nc(NC(=O)NS(=O)(=O)c2cccc3c2S(=O)(=O)N(C(C)C)C3)n1` [R7402, 2-methylethyl-2,2-dihydro-N-[(4,6-dimethoxypyrimidin-2-yl)aminocarbonyl]-1,2-benzoiaothiazole-7-sulfonamide-1,1-dioxide], the “male fertility after protoxin treatment” value [2] is given as “rendered male sterile”.
For `CC(=O)NC(CCP(C)(=O)O)C(=O)O` (stereo not shown) [acetyl-PPT, N-acetyl phosphinothricin], the “fertility of treated conditional male sterile plants” value [3] was “become male sterile”, the “fertility of treated conditional female sterile plants” value [4] was “become female sterile” and the “fertility of treated plants (male reproductive structures)” value [5] was “are male sterile”. For the same compound, the “fertility of treated plants (female reproductive structures)” value [6] was “are female sterile”.
For `O=C(O)CNCP(=O)(O)OCC(O)CO` (stereo not shown) [glycerol glyphosate, glyceryl glyphosate], the “male fertility after protoxin treatment” value [7] is listed as “rendered male sterile”.
